Assay results published in ChEMBL document CHEMBL1268994, “Synthesis and molecular modelling studies of prenylated pyrazolines as MAO-B inhibitors” (Bioorg Med Chem Lett, 2010).

Key:
[1] = target: T1, Amine oxidase [flavin-containing] B (Homo sapiens, UniProt P27338); assay: biochemical; format: cell-based
T1 sequence (P27338 whole entry): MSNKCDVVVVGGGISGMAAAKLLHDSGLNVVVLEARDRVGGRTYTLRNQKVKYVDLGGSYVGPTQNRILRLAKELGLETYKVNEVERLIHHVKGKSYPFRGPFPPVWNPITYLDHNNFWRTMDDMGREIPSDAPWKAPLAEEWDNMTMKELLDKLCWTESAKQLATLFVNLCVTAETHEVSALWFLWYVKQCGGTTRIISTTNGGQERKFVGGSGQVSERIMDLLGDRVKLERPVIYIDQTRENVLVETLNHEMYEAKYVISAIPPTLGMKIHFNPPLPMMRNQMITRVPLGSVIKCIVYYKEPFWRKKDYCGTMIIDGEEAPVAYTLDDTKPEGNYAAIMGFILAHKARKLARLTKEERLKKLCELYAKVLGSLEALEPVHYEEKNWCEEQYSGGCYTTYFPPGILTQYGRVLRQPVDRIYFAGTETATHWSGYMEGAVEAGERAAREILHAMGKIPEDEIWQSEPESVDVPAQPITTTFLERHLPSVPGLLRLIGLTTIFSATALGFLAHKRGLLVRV

[2] = target: T2, Amine oxidase [flavin-containing] A (Homo sapiens, UniProt P21397); assay: Inhibition of human recombinant MAO-A expressed in baculovirus infected BT1 cells at 100 uM
T2 sequence (P21397 whole entry): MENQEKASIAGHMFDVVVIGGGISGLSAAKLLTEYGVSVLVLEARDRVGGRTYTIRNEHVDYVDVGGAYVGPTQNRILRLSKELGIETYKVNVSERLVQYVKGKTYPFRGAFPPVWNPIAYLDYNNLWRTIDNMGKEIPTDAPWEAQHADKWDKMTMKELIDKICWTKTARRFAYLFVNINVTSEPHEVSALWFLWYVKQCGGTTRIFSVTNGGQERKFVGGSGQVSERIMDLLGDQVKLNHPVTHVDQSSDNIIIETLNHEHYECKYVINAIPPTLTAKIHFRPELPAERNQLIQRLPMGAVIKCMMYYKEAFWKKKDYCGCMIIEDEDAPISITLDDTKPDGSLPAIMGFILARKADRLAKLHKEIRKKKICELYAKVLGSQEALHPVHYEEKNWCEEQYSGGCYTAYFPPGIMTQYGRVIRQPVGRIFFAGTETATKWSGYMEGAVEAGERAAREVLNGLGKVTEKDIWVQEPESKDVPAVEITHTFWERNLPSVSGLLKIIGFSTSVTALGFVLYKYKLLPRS

[3] = target: T2, Amine oxidase [flavin-containing] A; assay: biochemical
[4] = target: T1, Amine oxidase [flavin-containing] B; assay: Inhibition of human recombinant MAO-B expressed in baculovirus infected BT1 cells at 1 mM; conditions: 1000 µM

## CC(C)=CCOc1ccc(C2=NN(C(N)=S)C(c3ccc(Cl)cc3)C2)c(O)c1 (configuration not stated)
[1]
  IC50: 832 nM
[2]
  inhibition (INH): Not Active

## CC(=O)N1N=C(c2ccc(OCC=C(C)C)cc2O)CC1c1ccc(OCc2ccccc2)cc1 (configuration not stated)
[1]
  IC50: 174 nM
[3]
  IC50: 316 nM

## CC(C)=CCOc1ccc(C2=NN(C(N)=S)C(c3ccccc3)C2)c(O)c1 (configuration not stated)
[1]
  IC50: 52500 nM
[2]
  inhibition (INH): Not Active

## O=C(NCCN1CCOCC1)c1ccc(Cl)cc1 [MOCLOBEMIDE]
[4]
  inhibition (INH): Not Active
